Data taken from the kinase profiling compilation of Christmann-Franck et al. (2016).

Key:
Experiment in all cases: radiometric filter-binding kinase assay, Kinase HotSpot
Conditions in all cases: compound 0.5 µM; ATP 10 µM
RAF1 (human) = RAF1 (human) (UniProt P04049)
CAMKK1 (human) = CAMKK1 (human) (UniProt Q8N5S9)
CDK3 CCNE1 (human) = CDK3 CCNE1 (human) (UniProt Q00526+P24864)
MAP3K9 (human) = MAP3K9 (human) (UniProt P80192)
CLK1 (human) = CLK1 (human) (UniProt P49759)
MAPK1 (human) = MAPK1 (human) (UniProt P28482)
SRC (human) = SRC (human) (UniProt P12931)
DYRK1B (human) = DYRK1B (human) (UniProt Q9Y463)
AKT1 (human) = AKT1 (human) (UniProt P31749)
DDR2 (human) = DDR2 (human) (UniProt Q16832)
WNK3 (human) = WNK3 (human) (UniProt Q9BYP7)
MKNK2 (human) = MKNK2 (human) (UniProt Q9HBH9)
PIM2 (human) = PIM2 (human) (UniProt Q9P1W9)
PRKCG (human) = PRKCG (human) (UniProt P05129)
PAK4 (human) = PAK4 (human) (UniProt O96013)
MAPK13 (human) = MAPK13 (human) (UniProt O15264)
MAP3K5 (human) = MAP3K5 (human) (UniProt Q99683)
TSSK1B (human) = TSSK1B (human) (UniProt Q9BXA7)
STK33 (human) = STK33 (human) (UniProt Q9BYT3)
JAK2 JH1 JH2 (human) = JAK2 JH1 JH2 (human) (UniProt O60674)
RPS6KA6 KD1 KD2 (human) = RPS6KA6 KD1 KD2 (human) (UniProt Q9UK32)
NTRK2 (human) = NTRK2 (human) (UniProt Q16620)
[1] = biological target: TYK2 JH1 catalytic (human) (UniProt P29597)
MAP3K3 (human) = MAP3K3 (human) (UniProt Q99759)
PRKG2 (human) = PRKG2 (human) (UniProt Q13237)
RPS6KA5 KD2 (human) = RPS6KA5 KD2 (human) (UniProt O75582)
FGR (human) = FGR (human) (UniProt P09769)
PRKCD (human) = PRKCD (human) (UniProt Q05655)
SGK2 (human) = SGK2 (human) (UniProt Q9HBY8)
ALK (human) = ALK (human) (UniProt Q9UM73)
PIM3 (human) = PIM3 (human) (UniProt Q86V86)
ACVRL1 (human) = ACVRL1 (human) (UniProt P37023)
DYRK3 (human) = DYRK3 (human) (UniProt O43781)
CAMK1 (human) = CAMK1 (human) (UniProt Q14012)
EPHA7 (human) = EPHA7 (human) (UniProt Q15375)
CSNK1G3 (human) = CSNK1G3 (human) (UniProt Q9Y6M4)
IGF1R (human) = IGF1R (human) (UniProt P08069)
EPHA4 (human) = EPHA4 (human) (UniProt P54764)
CDK1 CCNB1 (human) = CDK1 CCNB1 (human) (UniProt P06493+P14635)
CDK1 CCNA2 (human) = CDK1 CCNA2 (human) (UniProt P06493+P20248)

Sequence of PAK4 (human) (O96013 whole entry, looked up): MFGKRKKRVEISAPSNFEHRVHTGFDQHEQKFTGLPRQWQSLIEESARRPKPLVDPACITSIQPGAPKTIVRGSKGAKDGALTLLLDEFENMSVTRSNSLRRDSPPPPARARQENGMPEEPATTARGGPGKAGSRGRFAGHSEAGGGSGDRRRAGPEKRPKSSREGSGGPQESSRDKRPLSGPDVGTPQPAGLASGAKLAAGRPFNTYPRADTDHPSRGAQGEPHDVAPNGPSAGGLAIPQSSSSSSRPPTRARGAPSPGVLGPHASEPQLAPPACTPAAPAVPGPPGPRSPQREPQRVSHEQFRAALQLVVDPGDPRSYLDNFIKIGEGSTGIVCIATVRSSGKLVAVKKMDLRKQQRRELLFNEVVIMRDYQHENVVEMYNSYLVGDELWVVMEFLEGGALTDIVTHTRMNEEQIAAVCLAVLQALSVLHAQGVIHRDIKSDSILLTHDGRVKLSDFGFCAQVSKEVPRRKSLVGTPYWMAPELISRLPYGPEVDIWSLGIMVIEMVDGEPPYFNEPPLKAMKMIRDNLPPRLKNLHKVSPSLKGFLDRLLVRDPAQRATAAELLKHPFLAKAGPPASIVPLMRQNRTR
Sequence of CLK1 (human) (P49759 whole entry, looked up): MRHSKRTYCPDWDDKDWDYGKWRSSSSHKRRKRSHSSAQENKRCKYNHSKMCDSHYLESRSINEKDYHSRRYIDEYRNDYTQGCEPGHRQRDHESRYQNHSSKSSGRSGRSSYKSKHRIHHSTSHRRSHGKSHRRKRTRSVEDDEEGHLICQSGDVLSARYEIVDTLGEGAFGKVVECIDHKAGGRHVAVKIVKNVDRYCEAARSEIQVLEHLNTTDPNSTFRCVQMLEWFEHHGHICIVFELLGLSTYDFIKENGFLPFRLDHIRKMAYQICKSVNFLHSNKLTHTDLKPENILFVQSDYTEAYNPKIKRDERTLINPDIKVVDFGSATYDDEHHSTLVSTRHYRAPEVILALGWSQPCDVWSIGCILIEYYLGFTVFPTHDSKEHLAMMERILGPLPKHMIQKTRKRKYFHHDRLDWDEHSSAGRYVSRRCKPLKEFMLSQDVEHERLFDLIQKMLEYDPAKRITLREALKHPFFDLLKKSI
Sequence of JAK2 JH1 JH2 (human) (O60674 whole entry, looked up): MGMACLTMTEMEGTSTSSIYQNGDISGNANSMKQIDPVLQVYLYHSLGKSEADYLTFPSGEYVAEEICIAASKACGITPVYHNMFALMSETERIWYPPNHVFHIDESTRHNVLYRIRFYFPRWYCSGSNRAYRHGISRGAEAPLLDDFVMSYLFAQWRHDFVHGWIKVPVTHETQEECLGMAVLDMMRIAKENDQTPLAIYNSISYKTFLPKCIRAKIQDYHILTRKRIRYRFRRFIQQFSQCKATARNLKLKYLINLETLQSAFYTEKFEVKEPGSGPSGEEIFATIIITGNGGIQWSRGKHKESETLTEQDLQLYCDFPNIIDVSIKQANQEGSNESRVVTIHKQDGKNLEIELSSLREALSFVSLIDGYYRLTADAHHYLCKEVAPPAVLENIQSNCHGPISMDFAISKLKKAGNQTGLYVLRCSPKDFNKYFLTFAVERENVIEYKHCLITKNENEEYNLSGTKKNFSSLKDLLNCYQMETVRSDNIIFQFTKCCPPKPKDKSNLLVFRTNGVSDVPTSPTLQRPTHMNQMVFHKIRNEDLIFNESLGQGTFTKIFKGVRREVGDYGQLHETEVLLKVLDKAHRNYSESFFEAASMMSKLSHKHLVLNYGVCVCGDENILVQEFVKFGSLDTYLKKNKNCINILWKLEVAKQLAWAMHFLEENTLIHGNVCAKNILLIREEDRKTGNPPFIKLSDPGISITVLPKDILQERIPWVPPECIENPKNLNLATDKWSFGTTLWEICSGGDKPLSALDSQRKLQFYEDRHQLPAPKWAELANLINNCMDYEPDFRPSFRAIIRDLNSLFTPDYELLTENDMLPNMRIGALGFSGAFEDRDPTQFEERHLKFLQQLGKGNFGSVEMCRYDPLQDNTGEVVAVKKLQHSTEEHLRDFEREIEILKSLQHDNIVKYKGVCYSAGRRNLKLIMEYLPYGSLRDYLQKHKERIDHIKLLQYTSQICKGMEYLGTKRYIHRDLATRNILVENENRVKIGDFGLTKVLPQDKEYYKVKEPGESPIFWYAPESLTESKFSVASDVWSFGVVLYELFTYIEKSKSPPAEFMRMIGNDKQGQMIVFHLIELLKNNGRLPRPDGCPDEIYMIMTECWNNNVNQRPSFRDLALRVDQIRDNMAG
Sequence of RPS6KA5 KD2 (human) (O75582 whole entry, looked up): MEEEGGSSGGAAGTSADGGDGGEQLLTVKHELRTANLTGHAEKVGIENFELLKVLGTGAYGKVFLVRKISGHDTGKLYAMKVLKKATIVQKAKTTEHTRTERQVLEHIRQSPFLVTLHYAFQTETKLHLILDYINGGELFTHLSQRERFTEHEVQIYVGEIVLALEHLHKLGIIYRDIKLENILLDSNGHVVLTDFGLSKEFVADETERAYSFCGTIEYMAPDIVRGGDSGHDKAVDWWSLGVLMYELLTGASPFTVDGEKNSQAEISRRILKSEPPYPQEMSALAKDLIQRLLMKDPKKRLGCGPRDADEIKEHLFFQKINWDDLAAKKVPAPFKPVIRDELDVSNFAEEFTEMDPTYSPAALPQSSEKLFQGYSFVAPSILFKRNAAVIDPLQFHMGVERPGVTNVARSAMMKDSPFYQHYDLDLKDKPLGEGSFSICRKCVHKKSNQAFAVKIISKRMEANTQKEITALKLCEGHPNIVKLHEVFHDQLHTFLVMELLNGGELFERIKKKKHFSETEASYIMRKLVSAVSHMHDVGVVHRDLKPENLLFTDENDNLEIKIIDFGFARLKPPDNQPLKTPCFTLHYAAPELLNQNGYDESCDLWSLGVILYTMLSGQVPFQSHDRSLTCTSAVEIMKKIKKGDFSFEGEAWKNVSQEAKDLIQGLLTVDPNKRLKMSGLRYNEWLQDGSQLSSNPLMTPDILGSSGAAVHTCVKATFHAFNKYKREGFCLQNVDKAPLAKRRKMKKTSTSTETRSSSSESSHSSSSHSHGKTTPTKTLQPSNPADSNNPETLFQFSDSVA
Sequence of EPHA7 (human) (Q15375 whole entry, looked up): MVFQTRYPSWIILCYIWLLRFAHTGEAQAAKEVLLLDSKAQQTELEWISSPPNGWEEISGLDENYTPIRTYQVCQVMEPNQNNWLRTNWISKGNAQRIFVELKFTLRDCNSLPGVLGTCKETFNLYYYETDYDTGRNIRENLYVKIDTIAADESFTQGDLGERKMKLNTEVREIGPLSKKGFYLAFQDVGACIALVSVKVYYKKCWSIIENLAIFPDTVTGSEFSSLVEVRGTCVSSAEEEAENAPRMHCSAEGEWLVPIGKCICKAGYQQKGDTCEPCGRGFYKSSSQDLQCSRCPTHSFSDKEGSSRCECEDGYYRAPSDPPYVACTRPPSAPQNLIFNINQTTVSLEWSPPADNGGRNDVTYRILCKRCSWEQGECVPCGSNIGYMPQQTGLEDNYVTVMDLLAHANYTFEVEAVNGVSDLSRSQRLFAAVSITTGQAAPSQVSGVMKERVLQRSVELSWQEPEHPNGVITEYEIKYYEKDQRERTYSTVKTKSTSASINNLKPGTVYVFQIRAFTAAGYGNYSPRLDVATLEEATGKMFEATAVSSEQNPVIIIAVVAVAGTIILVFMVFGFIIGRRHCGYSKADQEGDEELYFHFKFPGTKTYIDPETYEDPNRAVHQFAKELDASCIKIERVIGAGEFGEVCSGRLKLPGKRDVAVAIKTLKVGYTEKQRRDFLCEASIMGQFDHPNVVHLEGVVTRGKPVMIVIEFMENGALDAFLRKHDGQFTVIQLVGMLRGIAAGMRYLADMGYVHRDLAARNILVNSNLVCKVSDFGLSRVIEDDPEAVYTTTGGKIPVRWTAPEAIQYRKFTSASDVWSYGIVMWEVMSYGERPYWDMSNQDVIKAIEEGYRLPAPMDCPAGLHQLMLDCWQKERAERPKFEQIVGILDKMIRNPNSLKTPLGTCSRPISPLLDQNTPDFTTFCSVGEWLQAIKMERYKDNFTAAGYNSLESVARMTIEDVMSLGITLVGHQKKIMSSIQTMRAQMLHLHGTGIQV
Sequence of FGR (human) (P09769 whole entry, looked up): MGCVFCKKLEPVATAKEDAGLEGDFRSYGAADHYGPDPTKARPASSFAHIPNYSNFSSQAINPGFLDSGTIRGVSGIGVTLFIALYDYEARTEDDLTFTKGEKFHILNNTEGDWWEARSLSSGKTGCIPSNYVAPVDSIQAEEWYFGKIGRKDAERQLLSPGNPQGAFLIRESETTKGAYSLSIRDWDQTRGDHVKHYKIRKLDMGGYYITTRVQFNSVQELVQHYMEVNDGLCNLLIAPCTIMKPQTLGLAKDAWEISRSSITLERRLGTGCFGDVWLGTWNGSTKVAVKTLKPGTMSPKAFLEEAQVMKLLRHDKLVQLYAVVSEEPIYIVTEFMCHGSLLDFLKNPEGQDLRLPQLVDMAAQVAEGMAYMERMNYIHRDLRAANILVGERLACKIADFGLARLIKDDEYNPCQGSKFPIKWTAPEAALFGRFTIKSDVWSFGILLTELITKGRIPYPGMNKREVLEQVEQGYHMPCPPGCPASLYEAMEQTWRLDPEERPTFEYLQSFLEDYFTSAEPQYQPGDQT
Sequence of CAMKK1 (human) (Q8N5S9 whole entry, looked up): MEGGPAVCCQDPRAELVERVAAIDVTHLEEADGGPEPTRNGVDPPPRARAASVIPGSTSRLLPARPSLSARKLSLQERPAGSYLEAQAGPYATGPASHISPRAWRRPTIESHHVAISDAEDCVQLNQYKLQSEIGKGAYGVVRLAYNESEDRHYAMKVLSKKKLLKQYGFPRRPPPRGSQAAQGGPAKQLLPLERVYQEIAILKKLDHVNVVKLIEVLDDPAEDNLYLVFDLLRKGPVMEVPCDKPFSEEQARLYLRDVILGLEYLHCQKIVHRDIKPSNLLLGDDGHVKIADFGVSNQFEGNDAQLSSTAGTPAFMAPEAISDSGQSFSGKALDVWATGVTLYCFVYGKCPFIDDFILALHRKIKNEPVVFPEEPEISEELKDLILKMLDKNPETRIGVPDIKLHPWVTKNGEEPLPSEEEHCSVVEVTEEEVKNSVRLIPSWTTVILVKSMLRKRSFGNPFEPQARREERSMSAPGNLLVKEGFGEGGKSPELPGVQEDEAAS

CC(C)[C@H](CO)Nc1nc(Nc2cc(N)cc(Cl)c2)c2ncn(C(C)C)c2n1
residual activity (RAF1 (human)): 113%
residual activity (CAMKK1 (human)): 86.8%
residual activity (CDK3 CCNE1 (human)): 31.9%
residual activity (MAP3K9 (human)): 7.81%
residual activity (CLK1 (human)): 51.9%
residual activity (MAPK1 (human)): 95.4%
residual activity (SRC (human)): 3.75%
residual activity (DYRK1B (human)): 38.3%
residual activity (AKT1 (human)): 117%
residual activity (DDR2 (human)): 128%
residual activity (WNK3 (human)): 76.9%
residual activity (MKNK2 (human)): 113%
residual activity (PIM2 (human)): 113%
residual activity (PRKCG (human)): 107%
residual activity (PAK4 (human)): 102%
residual activity (MAPK13 (human)): 101%
residual activity (MAP3K5 (human)): 95.6%
residual activity (TSSK1B (human)): 91.3%
residual activity (STK33 (human)): 56.2%
residual activity (JAK2 JH1 JH2 (human)): 100%
residual activity (RPS6KA6 KD1 KD2 (human)): 46.1%
residual activity (NTRK2 (human)): 3.04%
residual activity [1]: 57.9%
residual activity (MAP3K3 (human)): 100%
residual activity (PRKG2 (human)): 88.8%
residual activity (RPS6KA5 KD2 (human)): 103%
residual activity (FGR (human)): 15%
residual activity (PRKCD (human)): 87.6%
residual activity (SGK2 (human)): 121%
residual activity (ALK (human)): 79.6%
residual activity (PIM3 (human)): 93%
residual activity (ACVRL1 (human)): 109%
residual activity (DYRK3 (human)): 103%
residual activity (CAMK1 (human)): 95.3%
residual activity (EPHA7 (human)): 80.2%
residual activity (CSNK1G3 (human)): 13.4%
residual activity (IGF1R (human)): 73%
residual activity (EPHA4 (human)): 61.4%

O=C1Cc2c([nH]c3ccc(Br)cc23)-c2ccccc2N1
residual activity (RAF1 (human)): 91.5%
residual activity (CAMKK1 (human)): 99.8%
residual activity (CDK3 CCNE1 (human)): 81.7%
residual activity (MAP3K9 (human)): 64.6%
residual activity (CLK1 (human)): 96.7%
residual activity (MAPK1 (human)): 90.5%
residual activity (SRC (human)): 71.4%
residual activity (AKT1 (human)): 99.9%
residual activity (DDR2 (human)): 98.4%
residual activity (WNK3 (human)): 95.5%
residual activity (MKNK2 (human)): 102%
residual activity (PIM2 (human)): 104%
residual activity (PRKCG (human)): 93.8%
residual activity (PAK4 (human)): 92.2%
residual activity (MAPK13 (human)): 103%
residual activity (MAP3K5 (human)): 99.2%
residual activity (TSSK1B (human)): 80.4%
residual activity (STK33 (human)): 103%
residual activity (JAK2 JH1 JH2 (human)): 102%
residual activity (RPS6KA6 KD1 KD2 (human)): 95.9%
residual activity (NTRK2 (human)): 95%
residual activity [1]: 81.7%
residual activity (MAP3K3 (human)): 93.2%
residual activity (PRKG2 (human)): 101%
residual activity (RPS6KA5 KD2 (human)): 99.6%
residual activity (FGR (human)): 74.4%
residual activity (PRKCD (human)): 92.7%
residual activity (SGK2 (human)): 98.9%
residual activity (CDK1 CCNB1 (human)): 80.6%
residual activity (ALK (human)): 90.8%
residual activity (PIM3 (human)): 84.6%
residual activity (ACVRL1 (human)): 99%
residual activity (CDK1 CCNA2 (human)): 88.5%
residual activity (DYRK3 (human)): 113%
residual activity (CAMK1 (human)): 106%
residual activity (EPHA7 (human)): 101%
residual activity (CSNK1G3 (human)): 103%
residual activity (IGF1R (human)): 103%
residual activity (EPHA4 (human)): 96.1%

Nc1nccc(-c2c(-c3ccc(F)cc3)ncn2C2CCNCC2)n1
residual activity (RAF1 (human)): 90.9%
residual activity (CAMKK1 (human)): 103%
residual activity (CDK3 CCNE1 (human)): 95.5%
residual activity (MAP3K9 (human)): 94.5%
residual activity (CLK1 (human)): 98.2%
residual activity (MAPK1 (human)): 96.6%
residual activity (SRC (human)): 94.2%
residual activity (DYRK1B (human)): 100%
residual activity (AKT1 (human)): 99.9%
residual activity (DDR2 (human)): 107%
residual activity (WNK3 (human)): 95.3%
residual activity (MKNK2 (human)): 92.1%
residual activity (PIM2 (human)): 100%
residual activity (PRKCG (human)): 87.8%
residual activity (PAK4 (human)): 95.1%
residual activity (MAP3K5 (human)): 102%
residual activity (TSSK1B (human)): 106%
residual activity (STK33 (human)): 98.6%
residual activity (JAK2 JH1 JH2 (human)): 99.6%
residual activity (RPS6KA6 KD1 KD2 (human)): 109%
residual activity (NTRK2 (human)): 103%
residual activity [1]: 99.8%
residual activity (MAP3K3 (human)): 101%
residual activity (PRKG2 (human)): 97.2%
residual activity (RPS6KA5 KD2 (human)): 97.9%
residual activity (FGR (human)): 95.9%
residual activity (PRKCD (human)): 99.8%
residual activity (SGK2 (human)): 96.9%
residual activity (CDK1 CCNB1 (human)): 96.8%
residual activity (ALK (human)): 102%
residual activity (PIM3 (human)): 96%
residual activity (ACVRL1 (human)): 95.6%
residual activity (CDK1 CCNA2 (human)): 92.7%
residual activity (DYRK3 (human)): 96%
residual activity (CAMK1 (human)): 107%
residual activity (EPHA7 (human)): 94%
residual activity (CSNK1G3 (human)): 83.9%
residual activity (IGF1R (human)): 104%
residual activity (EPHA4 (human)): 99.8%
